# Tested on: human colonic epithelial cells (HCT 116), wild type
# Assay: IL-8 ELISA in wild type HCT 116 cells after digitonin-permeabilised stimulation
# Assay type: cell-based
# Conditions: FIG. 11; WT HCT 116; 10, 30 or 50 μg/mL, digitonin 20 min, IL-8 after 6 hours
# Protocol: Wild type (WT) or TIFA knockout (TIFA KO) cells were treated with compounds in the presence of digitonin for 20 min, treatment was removed, cells were washed and then cultured in normal medium without the synthetic compounds for 6 hr before IL-8 levels in culture supernatants were measured by ELISA. (A) Cells were treated with water or 10 μg/mL of the indicated compound. Data are means±standard error mean of technical triplicates. (B) Cells were treated with the NOD1 agonist C12-iE-DAP (39.8 μM) or with two different molar concentrations of compounds (30 μM or 150 μM). Two batches of dd-β-HBP and dd-β-HMP synthesized independently of one another were tested (batch #1 and batch #2) to assess consistency of the chemical synthesis. Data are means±standard error mean of two (150 μM treatment) or three (all other treatments) independent experiments. Nod1 agonist: C12-iE-DAP (20 μg/ml, 39.8 μM); JS-12: D-glycero-D-manno-heptose; JS-2: D-glycero-D-manno-heptose 7-phosphate; JS-7:D-glycero-β-D-manno-heptose-phosphate; JS-8: d-glycero-α-d-manno-heptose-phosphate; JS-9: β-d-mannose phosphate; JS-6:d-glycero-β-d-manno heptose 1,7-biphosphate; JS-5: d-glycero-α-d-manno heptose 1,7-biphosphate.
# FIG. 11. Stimulation of human colonic epithelial cells by compounds/products according to the invention. Human colonic epithelial cells (HCT 116) that were either wild type (WT) or deficient in TIFA protein expression (knockout, KO) were stimulated for 20 minutes in permeabilization buffer (5 μg/mL digitonin) in the presence of water or 10 μg/mL, 30 μg/mL, or 50 μg/mL of indicated synthetic compounds according to the invention. Treatment was removed, cells were washed, and cells were incubated for 6 hours in complete media before IL-8 levels in culture supernatants was measured by ELISA. The results are the mean±standard error of the mean of three technical replicates. JS-10: 7-O-(Aminoethyl)-D-glycero-β-D-manno-heptopyranose phosphate; JS-11: 7-O-(Aminoethyl) -D-glycero-D-manno-heptopyranose; JS-12: D-glycero-D-manno-heptose; Js-13: pH-Rhodo -7-O-(aminoethyl)-D-glycero-β-D-manno-heptopyranose phosphate.
# FIG. 13. […] Treatment was removed, cells were washed, and cells were incubated for 6 hours in complete media before IL-8 levels in culture supernatants were measured by ELISA. The results are the mean±standard error of the mean of two (150 μM treatment) or three (all other treatments) independent experiments. #=none detected, JS-10: 7-O-(Aminoethyl)-d-glycero-β-d-manno-heptopyranose phosphate; JS-14: Biotin-7-O-(aminoethyl)-d-glycero-β-d-manno-heptopyranose phosphate, Nod1 agonist: C12-iE-DAP (20 μg/ml, 39.8 μM).
# FIG. 16. […] Treatment was removed, cells were washed, and cells were incubated for 6 hours in complete media before IL-8 levels in culture supernatants were measured by ELISA. […]
smiles,measurement,value
"NCCOC[C@@H](O)C1O[C@@H](OP(=O)([O-])[O-])C(O)[C@@H](O)[C@@H]1O.[Na+].[Na+] (stereo partly drawn) [JS-10a, 7-O-(Aminoethyl)-D-glycero-β-D-manno-heptopyranose phosphate]",inflammatory response (IL-8 in culture supernatant),modest inflammatory response
